Data set [1] can be described thus: LC-MS analysis of original compound DMSO stock. The data set is classed as physicochemical. Particulars: negative mode LC-MS. The text has this: By measuring the R2 values of fragments with and without protein present in the sample, a strong indication of the extent of protein binding can be obtained. […] This increase in R2 was reversed upon addition of the TIN2TBM competitor. […] Nevertheless, given the strong binding activity of the fragment derivative 27 in the CPMG assay, a pure stock of 27 was synthesised and put forward for further characterisation using a quantitative LO-NMR assay to determine the dissociation constant.
Supplementary Figure 3: Negative mode LC-MS analysis of compound 25. The LC-UV
This value aligned with the molecular weight of compound 27 (251 g mol-1), conﬁrming that
(1 picture or pasted object on this page, not shown here)

Data set [2] has as its target TRF1TRFH. On the set-up: method as in PMID 18202258. Particulars: ITC; read-out: dissociation constant of TIN2TBM for TRF1TRFH; cited from earlier work. (In general: Isothermal titration calorimetry measures the heat released or taken up as one component is titrated into another.)
For data set [3], the target named is T1, TRFH domain of TRF1 (TRF1_(TRFH)), residues 47–268 (human, UniProt P54274-1 47-268).
T1 construct: cDNA codon-optimised for E. coli; also called TRF homology (TRFH) domain; source: E. coli BL21-CodonPlus(DE3)-RIL, purified (HisTrap, TEV cleavage, second HisTrap, Superdex 200 SEC); not shown: His6, N-terminal, cleaved; MBP, N-terminal, cleaved
T1 sequence (looked up): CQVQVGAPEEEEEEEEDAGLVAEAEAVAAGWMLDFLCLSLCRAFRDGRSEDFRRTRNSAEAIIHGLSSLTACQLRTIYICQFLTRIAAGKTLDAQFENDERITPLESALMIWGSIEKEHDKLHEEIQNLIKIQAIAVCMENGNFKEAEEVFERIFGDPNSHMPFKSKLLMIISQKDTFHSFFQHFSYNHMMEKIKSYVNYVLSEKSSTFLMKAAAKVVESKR
The experiment in a line: ligand-observed NMR (CPMG / R2 relaxation) competition; fragment 250 µM with 20 µM TRF1_(TRFH), with or without 40 µM TIN2TBM peptide as competitor; NMR buffer; 298 K. Particulars: both partners purified.

Take `CCOc1ccc(S(=O)(=O)n2ccnc2)c2ccccc12` [Compound 25]: in data set [1], the “stability in original screening DMSO stock” value is given as “degraded into compound 27”.
On to “Ac-RHFNLAPLGRRRVQSQWASTR-CONH2 (Ac-RHFNLAPLGRRRVQSQWASTR-NH2) [TIN2TBM]”, for which, in data set [2], the Kd is 300 nM.

B1: TIN2TBM peptide (21-mer, Ac-RHFNLAPLGRRRVQSQWASTR-CONH2) (peptide)
peptide: Ac-RHFNLAPLGRRRVQSQWASTR-NH2
notes: limits worked out from L260 of the F-X-L-X-P motif
Turning to B1, the binding result in data set [3] was “binds”.

The values are drawn from PMC12635197, “Discovery of first-in-class inhibitors of the TRF1:TIN2 protein:protein interaction by fragment screening” (Scientific Reports, 2025).
